{
  "source": "patent US20200077655A1",
  "about": "“Use of an Acyclic Picolinamide Compound as a Fungicide for Control of Phytopathogenic Fungi in Orchard, Vineyard and Plantation Crops” (Dow AgroSciences LLC, priority 2017, published 2020)",
  "assay_type_in_all_cases": "in vivo",
  "key": {"[1]": {"tested_on": "Stigmina carpophila (STIGCA)", "assay": "Field assessment of two trials for shot hole in almond (AUDPC)", "conditions": "almond leaf incidence", "description": "A fungicidal treatment containing Compound I, applied in an SC formulation (MSO built-in) and tank mixed with an adjuvant (Agnique BP-420, 50% w/w at 0.2% v/v or Adsee C80W 80%), was sprayed on almond trees (PRNDU, Winters or Carmel varieties) at growth stage BBCH71 and 72 at rates of 60, 120, 150, and 180 g ai/ha in two trials. The experimental plots were run with natural infestation. The treatments were part of experimental trials designed as a randomized complete block (RCB) with three replications and a plot of approximately 14×20 ft, both trials. Compound I was applied at water volume of 100 gal/acre, using a Mistblower sprayer (Orifice nozzle 0.125 setting), both trials.\nPercent Leaf incidence (calculated from the number of visual diseased leaves per 30 (Winters) or 50 (Carmel) leaves per tree on whole plot) was assessed three or four times during the trial. Area under the disease progress curve (AUDPC) was calculated for each plot using the sets of recorded leaf incidence data. Relative percent control was calculated from the AUDPC as percent of the untreated control using Abbotts."}, "[2]": {"tested_on": "Alternaria mali (ALTEMA)", "assay": "Field assessment of leaf spot of apple, protectant and curative trials", "method": "Assessment of compound I on leaf spot of apple (ALTEMA), in both protectant and curative fashion, was performed in two separate field trials. For the protectant trial, a fungicidal treatment containing a 10% SC formulation of Compound I, either alone or with an adjuvant (Agnique BP420, 50% w/w at 0.3% v/v; or ETHOMEEN T18H, 50% w/w at 0.2% v/v), was sprayed on the plant canopy of apple trees (Hongxing variety) six times during the growing season of apples with each application coming at 15 day intervals. Formulations of Compound I, with or without adjuvants, were applied at rates of 100, 125 and 150 grams of active ingredient per hectare (g ai/ha) and were applied at water volume of 4500 L/ha. The experimental plots were inoculated three times with the leaf spot pathogen, the first inoculation performed at 2 days after the first application (Application A, 2DAAA), with the following applications at 2DAAC and 2DAAD. The treatment was part of an experimental trial designed as a randomized complete block with three replications and a plot size of 3 trees.\nFor the curative trial, a fungicidal treatment containing a 10% SC formulation of Compound I, either alone or with an adjuvant (Agnique BP420, 50% w/w at 0.3% v/v; or ETHOMEEN T18H, 50% w/w at 0.2% v/v), was sprayed on the plant canopy of apple trees (Hongxing variety) six times during the growing season of apples with each application coming at 15 day intervals. Formulations of Compound I, with or without adjuvants, were applied at rates of 100, 125 and 150 grams of active ingredient per hectare (g ai/ha) and were applied at water volume of 4500 L/ha. The experimental plots were inoculated three times with the leaf spot pathogen, the first inoculation performed at 5 days before the first application. The second inoculation was at 5 days before the third application and the third inoculation coming at 5 days before the fourth application. The treatment was part of an experimental trial designed as a randomized complete block with three replications and a plot size of 3 trees.\nDisease incidence was assessed as percentage of diseased foliage per plant. Apple leaf spot infection was assessed six times, with the last assessment coming at 90 days after the first application. Area under the disease progress curve (AUDPC) was calculated for each plot using the sets of recorded visual infection data. Relative AUDPC (% control based on AUDPC) was calculated as percent of the nontreated control."}, "[3]": {"tested_on": "Monilinia fructicola (MONIFC)", "assay": "Field microplot assessment on brown rot on peaches", "conditions": "field grown peaches, 17 days after first application", "description": "A field trial assessing the utility of Compound I on rot diseases of stone fruits was also done on peaches using a microplot method, part of an experimental trial designed as a randomized complete block with four replications. In a microplot method, two mature fruits on a single branch or cluster of fruits were selected for each replication (for a total of 10 replications) instead of using an entire replication. Colored flagging identified treatments. One day before the first application, a ZipLoc plastic bag was placed over the fruit or fruit cluster and an inoculation mix of MONIFC was sprayed inside covering the fruits. The plastic bags were removed after 24 hours. After 24 hr, fungicidal treatments containing Compound I, applied in a 5% EC formulation and tank mixed with an adjuvant (Trycol, 50% w/w at 0.2% v/v), were then sprayed twice on peaches (PRNPS) at rates of 50, 100, and 150 grams of active ingredient per hectare (g ai/ha). The applications to the selected mature peaches were done at 14 and 7 days before harvest using a CO2 powered inoculation spray gun at a water volume of 500 L/ha. At harvest, the fruits were collected in the field and placed in plastic Tupperware containers. 150 mL of de-ionized water was poured in the bottom of the Tupperware containers and the fruits were sprayed with a light mist of water. The containers were brought to the lab, enclosed in a large trash bag to keep the humidity high, and incubated on a lab bench at approximately 23° C. The percentage of visual disease incidence and severity was assessed during the trial at 17 days after the first application."}, "[4]": {"conditions": "100 g ai/ha, adjuvant ETHOMEEN, 10% SC"}, "[5]": {"conditions": "100 g ai/ha, adjuvant None, 10% SC"}, "[6]": {"conditions": "125 g ai/ha, adjuvant Agnique BP420, 10% SC"}, "[7]": {"conditions": "125 g ai/ha, adjuvant ETHOMEEN, 10% SC"}, "[8]": {"conditions": "150 g ai/ha, adjuvant ETHOMEEN, 10% SC"}},
  "data": [
    {"smiles": "COc1ccnc(C(=O)N[C@@H](C)C(=O)O[C@@H](C)C(c2ccc(F)cc2)c2ccc(F)cc2)c1OC(C)=O", "note": "[Compound I, (S)-1,1-bis(4-fluorophenyl)propan-2-yl (3-acetoxy-4-methoxypicolinoyl)-L-alaninate]", "values": [
      {"measurement": "Calculated Percent Control (AUDPC) of STIGCA", "setting": "[1]; 60 g ai/ha, Agnique BP420, 240 mL/ha", "result": 45.2, "unit": "%"},
      {"measurement": "Calculated Percent Control (AUDPC) of STIGCA", "setting": "[1]; 60 g ai/ha, MSO, 120 g ai/ha", "result": 47.9, "unit": "%"},
      {"measurement": "Calculated Percent Control (AUDPC) of STIGCA", "setting": "[1]; 120 g ai/ha, Adsee C80W, 300 g ai/ha", "result": 44.6, "unit": "%"},
      {"measurement": "Calculated Percent Control (AUDPC) of STIGCA", "setting": "[1]; 120 g ai/ha, Agnique BP420, 480 mL/ha", "result": 49, "unit": "%"},
      {"measurement": "Calculated Percent Control (AUDPC) of STIGCA", "setting": "[1]; 120 g ai/ha, MSO, 240 g ai/ha", "result": 48.3, "unit": "%"},
      {"measurement": "Calculated Percent Control (AUDPC) of STIGCA", "setting": "[1]; 150 g ai/ha, Agnique BP420, 600 mL/ha", "result": 41.1, "unit": "%"},
      {"measurement": "Calculated Percent Control (AUDPC) of STIGCA", "setting": "[1]; 150 g ai/ha, MSO, 300 g ai/ha", "result": 45.1, "unit": "%"},
      {"measurement": "Calculated Percent Control (AUDPC) of STIGCA", "setting": "[1]; 180 g ai/ha, Agnique BP420, 720 mL/ha", "result": 30.1, "unit": "%"},
      {"measurement": "Calculated Percent Control (AUDPC) of STIGCA", "setting": "[1]; 180 g ai/ha, MSO, 360 g ai/ha", "result": 49.0, "unit": "%"},
      {"measurement": "% Control Curative (AUDPC, leaf infection)", "setting": "[2]; [4]", "result": "A (76-100)"},
      {"measurement": "% Control Protectant (AUDPC, leaf infection)", "setting": "[2]; [4]", "result": "A (76-100)"},
      {"measurement": "% Control Curative (AUDPC, leaf infection)", "setting": "[2]; [5]", "result": "B (51-75)"},
      {"measurement": "% Control Protectant (AUDPC, leaf infection)", "setting": "[2]; [5]", "result": "B (51-75)"},
      {"measurement": "% Control Curative (AUDPC, leaf infection)", "setting": "[2]; [6]", "result": "A (76-100)"},
      {"measurement": "% Control Protectant (AUDPC, leaf infection)", "setting": "[2]; [6]", "result": "A (76-100)"},
      {"measurement": "% Control Curative (AUDPC, leaf infection)", "setting": "[2]; [7]", "result": "A (76-100)"},
      {"measurement": "% Control Protectant (AUDPC, leaf infection)", "setting": "[2]; [7]", "result": "A (76-100)"},
      {"measurement": "% Control Curative (AUDPC, leaf infection)", "setting": "[2]; [8]", "result": "A (76-100)"},
      {"measurement": "% Control Protectant (AUDPC, leaf infection)", "setting": "[2]; [8]", "result": "A (76-100)"},
      {"measurement": "MONIFC, percentage of area affected on peaches (Severity)", "setting": "[3]; 50 g ai/ha", "result": 87.3, "unit": "%"},
      {"measurement": "MONIFC, percentage of area affected on peaches (Severity)", "setting": "[3]; 100 g ai/ha", "result": 57.0, "unit": "%"},
      {"measurement": "MONIFC, percentage of area affected on peaches (Severity)", "setting": "[3]; 150 g ai/ha", "result": 69.5, "unit": "%"}
    ]}
  ]
}
